The source of these data is ChEMBL document CHEMBL1201862, “PubChem BioAssay data set” (2004).

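Values below derive from 48-hour exposures of cells grown in 96-well plates, with endpoints linearly interpolated between the two concentrations bracketing the appropriate inhibition level. Abbreviation: GI50, concentration required for 50% inhibition of growth.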 The source made the active and inactive calls. Cut-off read from the data, not from the text of the source: active = GI50 up to about 1.1 µM and inactive = higher.

Among the test systems are HCT-116; OVCAR-4; HCT-15; NCI-H460; OVCAR-5; 786-0; CAKI-1; K562; MDA-MB-435; EKVX; HT-29; HOP-62; U-251; SF-295; IGROV-1; CCRF-CEM; NCI-H522; T47D; SNB-75; SR.
Test in all cases: inhibition of tumour cell growth, NCI panel, 48 h

Regarding `O=c1[nH]nc(Cc2ccccc2)n1N=C1CCCCC1`, the GI50 in the assay on HCT-116 is > 100 µM (inactive); in the assay with OVCAR-4, > 100 µM (inactive); with HCT-15, greater than 100 µM; in the assay on NCI-H460, > 100 µM (inactive); in the assay with OVCAR-5, 3.78 µM (inactive); in the assay on 786-0, > 100 µM (inactive). The GI50 in the assay on CAKI-1 was > 100 µM (inactive); in the assay with K562, > 100 µM (inactive); in the assay with MDA-MB-435, > 100 µM (inactive); in the assay on EKVX, < 0.01 µM (active); with HT-29 it was 58.7 µM (inactive); in the assay on HOP-62 it was > 100 µM (inactive). The GI50 in the assay with U-251, in the assay on SF-295, in the assay with IGROV-1, with CCRF-CEM, in the assay on NCI-H522 and with T47D was > 100 µM (inactive) throughout.
As for `CCCCNC(=S)Nc1nc(C(=O)NNC(=S)Nc2ccccc2)cs1`, the GI50 in the assay on HCT-116 is > 100 µM (inactive); in the assay on OVCAR-4, > 100 µM (inactive); in the assay with HCT-15, greater than 100 µM; with NCI-H460, > 100 µM (inactive); in the assay with OVCAR-5, > 100 µM (inactive); with 786-0, 40.1 µM (inactive). Further, the GI50 is > 100 µM (inactive) in the assay on CAKI-1; 38.3 µM (inactive) with SNB-75; 61 µM (inactive) in the assay with MDA-MB-435; > 100 µM (inactive) in the assay with EKVX; > 100 µM (inactive) in the assay with HT-29; > 100 µM (inactive) in the assay with HOP-62. The GI50 was 21.1 µM (inactive) in the assay with U-251, > 100 µM (inactive) with SF-295, > 100 µM (inactive) in the assay on CCRF-CEM and > 100 µM (inactive) in the assay with T47D.
As for `Cc1c(NC(=O)CCl)c(=O)oc2c(C)c3occc(=O)c3cc12`, the GI50 is 6.49 µM (inactive) in the assay on SR; 11.6 µM (inactive) with HCT-116; 11.5 µM (inactive) in the assay on OVCAR-4; greater than 10 µM with HCT-15; 10.7 µM (inactive) in the assay with NCI-H460; 18.5 µM (inactive) in the assay on OVCAR-5. Besides, the GI50 was 13.9 µM (inactive) in the assay on 786-0; 12.3 µM (inactive) with CAKI-1; 10.1 µM (inactive) in the assay with K562; 2.39 µM (inactive) with SNB-75; 18.9 µM (inactive) in the assay on EKVX; 14.9 µM (inactive) with HT-29. Further, the GI50 was 13.8 µM (inactive) in the assay with HOP-62; 14.4 µM (inactive) with U-251; 12.6 µM (inactive) in the assay with SF-295; 11.6 µM (inactive) in the assay on IGROV-1; 3.48 µM (inactive) in the assay with CCRF-CEM; 14 µM (inactive) in the assay on T47D.
Regarding `Cc1ccc(/C=C2\CN(C)CC3C2=NN(c2ccccc2)C3c2ccc(C)cc2)cc1` (stereo not given), the GI50 is > 100 µM (inactive) in the assay with HCT-116; > 100 µM (inactive) in the assay with OVCAR-4; greater than 100 µM in the assay with HCT-15; > 100 µM (inactive) in the assay on NCI-H460; > 10 µM (inactive) in the assay with OVCAR-5; > 100 µM (inactive) in the assay on 786-0. For the same compound, the GI50 in the assay with CAKI-1 is > 100 µM (inactive); in the assay on K562, 46.7 µM (inactive); with MDA-MB-435, > 100 µM (inactive); in the assay on EKVX it was 76.7 µM (inactive); in the assay on HT-29, > 100 µM (inactive); with HOP-62 it was > 100 µM (inactive). Further, the GI50 in the assay on U-251 was 33.3 µM (inactive); in the assay with SF-295 it was > 100 µM (inactive); in the assay with IGROV-1 it was > 100 µM (inactive); in the assay on CCRF-CEM it was 29 µM (inactive); with NCI-H522, > 100 µM (inactive); in the assay with T47D it was > 100 µM (inactive).
